In article PMC8151276, “An Integrated Approach toward NanoBRET Tracers for Analysis of GPCR Ligand Engagement” (Molecules, 2021):

Biological target: T1, CCKBR (Homo sapiens, UniProt P32239)
T1 construct: purchased Promega (in-house HiBiT-GPCR construct library, NanoBRET)
T1 sequence (P32239 1-447): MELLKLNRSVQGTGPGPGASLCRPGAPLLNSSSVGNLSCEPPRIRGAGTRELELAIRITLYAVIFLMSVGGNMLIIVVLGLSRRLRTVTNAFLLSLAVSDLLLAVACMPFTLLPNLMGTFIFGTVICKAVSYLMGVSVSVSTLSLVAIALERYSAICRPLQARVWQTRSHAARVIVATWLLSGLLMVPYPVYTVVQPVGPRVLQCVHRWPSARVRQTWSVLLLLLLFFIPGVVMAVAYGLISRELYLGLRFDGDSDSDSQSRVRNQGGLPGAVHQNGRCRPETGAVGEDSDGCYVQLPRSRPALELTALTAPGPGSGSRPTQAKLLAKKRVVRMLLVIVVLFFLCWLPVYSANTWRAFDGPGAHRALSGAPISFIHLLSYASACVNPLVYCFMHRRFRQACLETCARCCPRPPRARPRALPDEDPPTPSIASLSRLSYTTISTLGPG
Assay: NanoBRET screen HiBiT-CCKBR in HEK293
Assay type: binding
Procedure: Each tracer candidate was screened across the entire library of HiBiT-GPCR constructs using NanoBRET as the detection modality. As depicted in Figure 4A, the specificity of interactions was evaluated through decrease in BRET due to competitive displacement of a bound tracer by excess parental compound. Each tracer was analyzed for binding to each HiBiT-GPCR fusion in the absence and in the presence of competing parental compound. Briefly, HEK293 cells were transfected with HiBiT-GPCR constructs diluted into promoterless DNA to reduce expression and maximize translocation to the cell surface. Each tracer candidate was then screened at concentrations of 1 μM and 0.1 μM across cells expressing these fusions. Cells were treated for 1.5 h with tracer either alone or in the presence of 20 μM competing parental compound (i.e., control). BRET was measured upon addition of purified LgBiT and subsequent complementation with HiBiT genetically fused to a GPCR. The specificity of interactions was assessed through a decrease in BRET signal due to competitive displacement of the bound tracer. To further gauge the robustness of these interactions, the fold response over the control (i.e., BRETtracer/BRETcontrol) was calculated. We chose a 1.5-fold response, which translates to ≥7-fold signal over noise as the minimal threshold required to score an interaction as positive. […]. Below we highlight the screening results obtained for our exemplary fluorescent tracers based on Clozapine, Amitriptyline and AZD1283.
HiBiT-GPCR DNA constructs were diluted in 10 mM Tris pH 8 to a final concentration of 0.01 μg/μL, arrayed in 96-well plates and stored at −20 °C. For transfection, HEK293 cells were suspended in Opti-MEM (without phenol red) supplemented with 2% fetal bovine serum (Seradigm) and 100 units/mL penicillin–streptomycin (Gibco) at a final concentration of 220,000 cells/mL and dispensed into white 96-well plates at 90 μL/well. Subsequent transfections and screens were carried using an Agilent Bravo Automated Liquid Handling Platform. First, the 96-well HiBiT DNA arrays were diluted 25-fold in Opti-MEM (without serum or phenol red) to a final concentration of 0.0004 μg/μL and 20 μL of the diluted DNAs were transferred into new 96-well plates. Next, promoterless carrier DNA (1 μg/μL) was diluted 25-fold (0.04 μg/μL) and then dispensed into the diluted arrays at 20 μL/well. Following brief mixing, Viafect transfection reagent (Promega) diluted 16-fold into Opti-MEM was dispensed into the plates at 40 μL/well. After mixing by pipetting, plates were incubated for 10 min on the pipetting station deck. The DNA-transfection reagent complexes were then added to plates containing cells. To facilitate the screen, 10 μL of DNA-transfection reagent complexes were added in duplicates to the top 4 and bottom 4 rows, resulting in two identical 48-well arrays per plate. Plates with transfected cells were incubated for 18–20 h at 37 °C/5% CO2. A screen of each tracer across the entire library using two different concentrations requires duplicate plates of transfected cells. Depending on the number of tracers being screened, transfections can be scaled up using the same ratios. The next day, for each tracer, four 20× screening solutions in tracer dilution buffer (Promega) were prepared: two duplicates at final concentration of 20 μM and two duplicates at a final concentration of 2 μM. A competing unmodified compound was added to one of each duplicate at a final concentration of 400 μM. The four resulting solutions were diluted 4-fold in Opti-MEM without serum or phenol red to generate 5× solutions (5 µM and 0.5 µM tracer +/− 100 μM competing compound). To screen the library, a BioTek MultiFlo FX liquid dispenser was used to dispense 22.5 µL of tracer solution to the top 4 rows and 22.5 µL tracer + competing compound solution to the 4 bottom rows. Plates were briefly mixed on an orbital shaker and incubated for 1.5 h at room temperature. […]

| Structure (SMILES) | NanoBRET Fold Response (CCKBR, tracer 0.1μM) | NanoBRET Fold Response (CCKBR, tracer 1μM) | further results |
| --- | --- | --- | --- |
| CN1CCN(C2=Nc3cc(Cl)ccc3Nc3ccc(CNC(=O)CCOCCOCCOCCOCCNC(=O)CCc4ccc5n4[B-](F)(F)[N+]4=C(c6ccc[nH]6)C=CC4=C5)cc32)CC1 [Clozapine-b-2-NB590] |  |  | NanoBRET Fold Response (CCKBR, 0.1μM tracer): 0.99; NanoBRET Fold Response (CCKBR, 1μM tracer): 1.07 |
| CN(C)CCC=C1c2ccccc2CCc2ccc(C(=O)NCCNC(=O)CCOCCOCCOCCOCCNC(=O)CCc3ccc4n3[B-](F)(F)[N+]3=C(c5ccc[nH]5)C=CC3=C4)cc21 [Amitriptyline-b-2-NB590] |  |  | NanoBRET Fold Response (tracer at 0.1μM, listed as amitriptyline-b-2-NB590): 1.10; NanoBRET Fold Response (tracer at 1μM, listed as amitriptyline-b-2-NB590): 1.09 |
| CCOC(=O)c1cc(C#N)c(N2CCC(C(=O)NS(=O)(=O)Cc3ccccc3/C=C/C(=O)NCCNC(=O)CCc3ccc4n3[B-](F)(F)[N+]3=C(c5ccc[nH]5)C=CC3=C4)CC2)nc1C [AZD1283-1-NB590] |  |  | NanoBRET Fold Response (CCKBR, 0.1μM): 1.18; NanoBRET Fold Response (CCKBR, 1μM): 1.10 |
| CC(C)N(CC[C@H](c1ccccc1)c1cc(CCNC(=O)CCOCCOCCOCCOCCNC(=O)CCc2ccc3n2[B-](F)(F)[N+]2=C(c4ccc[nH]4)C=CC2=C3)ccc1O)C(C)C [Tolterodine-2-NB590] | 0.97 | 1.07 |  |
| CC(C)N(CC[C@H](c1ccccc1)c1cc(CCNC(=O)c2ccc(CNC(=O)CCc3ccc4n3[B-](F)(F)[N+]3=C(c5ccc[nH]5)C=CC3=C4)cc2)ccc1O)C(C)C [Tolterodine-BZ-NB590] | 0.97 | 1.06 |  |
| O=C(CCOCCOCCOCCOCCNC(=O)CCc1ccc2n1[B-](F)(F)[N+]1=C(c3ccc[nH]3)C=CC1=C2)NCCCN1CCN(C2=Nc3ccccc3Oc3ccc(Cl)cc32)CC1 [Loxapine-a-2-NB590] | 1.05 | 0.98 |  |
| CN1CCN(C2=Nc3cc(Cl)ccc3N(CC(=O)NCCOCCOCCOCCOCCNC(=O)CCc3ccc4n3[B-](F)(F)[N+]3=C(c5ccc[nH]5)C=CC3=C4)c3ccccc32)CC1 [Clozapine-c-2-NB590] |  |  | NanoBRET Fold Response (CCKBR, 0.1μM tracer): 1.04; NanoBRET Fold Response (CCKBR, 1μM tracer): 1.01 |
| CN(C)CCC=C1c2ccccc2CCc2ccc(C(=O)NCCNC(=O)CCOCCOCCOCCOCCNC(=O)CCc3ccc4n3[B-](F)(F)[N+]3=C(c5ccc[nH]5)C=CC3=C4)cc21 [Amitriptyline-a-2-NB590] |  |  | NanoBRET Fold Response (tracer at 0.1μM): 1.02; NanoBRET Fold Response (tracer at 1μM): 0.98 |
| Cc1nc2n(c(=O)c1CCN1CCC(c3noc4cc(F)ccc34)CC1)CCCC2OC(=O)NCCOCCOCCOCCOCCNC(=O)CCc1ccc2n1[B-](F)(F)[N+]1=C(c3ccc[nH]3)C=CC1=C2 (centres unmarked) [Risperidone-2-NB590] | 1.01 | 0.81 |  |
| COc1ccc2[nH]c(-c3ccc(CNC(=O)CCOCCOCCOCCOCCNC(=O)CCc4ccc5n4[B-](F)(F)[N+]4=C(c6ccc[nH]6)C=CC4=C5)cc3)c(CCNC(C)=O)c2n1 [AzomelatoninICO9-2-NB590] |  |  | NanoBRET Fold Response (0.1μM tracer): 1.13; NanoBRET Fold Response (1μM tracer): 1.16 |
| COc1ccccc1N1CCN(CCCCN2C(=O)c3ccc(CNC(=O)CCOCCOCCOCCOCCNC(=O)CCc4ccc5n4[B-](F)(F)[N+]4=C(c6ccc[nH]6)C=CC4=C5)cc3C2=O)CC1 [NAN-190-2-NB590] | 1.00 | 0.97 |  |
| O=C(CCc1ccc2n1[B-](F)(F)[N+]1=C(c3ccc[nH]3)C=CC1=C2)NCCOCCOCCNC(=O)OCCOCCN1CCN(C2=Nc3ccccc3Sc3ccccc32)CC1 [Quetiapine-a-2-NB590] | 1.05 | 0.93 |  |
| O=C(CCOCCOCCOCCOCCNC(=O)CCc1ccc2n1[B-](F)(F)[N+]1=C(c3ccc[nH]3)C=CC1=C2)NCCCN1CCN(C2=Nc3cc(Cl)ccc3Nc3ccccc32)CC1 [Clozapine-a-2-NB590] |  |  | NanoBRET Fold Response (CCKBR, 0.1μM tracer): 1.01; NanoBRET Fold Response (CCKBR, 1μM tracer): 1.01 |
| N#CN=C(NCCCOc1cccc(CN2CCCCC2)c1)NCCNC(=O)CCOCCOCCOCCOCCNC(=O)CCc1ccc2n1[B-](F)(F)[N+]1=C(c3ccc[nH]3)C=CC1=C2 [Aminopotentidine-2-NB590] | 1.17 | 1.04 |  |
| O=C(CCc1ccc2n1[B-](F)(F)[N+]1=C(c3ccc[nH]3)C=CC1=C2)NCc1ccc(C(=O)NCCOCCOCCNCC(O)COc2cccc3ccccc23)cc1 (centres unmarked) [Propranolol-3-NB590] |  |  | NanoBRET Fold Response (CCKBR, 0.1μM): 1.05; NanoBRET Fold Response (CCKBR, 1μM): 0.91 |
| O=C(CCc1ccc2n1[B-](F)(F)[N+]1=C(c3ccc[nH]3)C=CC1=C2)NCc1ccc(C(=O)NCCOCCC(=O)N[C@@H]2CC[C@@]3(O)[C@H]4Cc5ccc(O)c6c5[C@@]3(CCN4CC3CC3)[C@H]2O6)cc1 [Naltrexone-3-NB590] | 0.79 | 0.93 |  |
| COc1ccccc1N1CCN(CCCCN2C(=O)c3ccc(CNC(=O)CCOCCNC(=O)c4ccc(CNC(=O)CCc5ccc6n5[B-](F)(F)[N+]5=C(c7ccc[nH]7)C=CC5=C6)cc4)cc3C2=O)CC1 [NAN-190-3-NB590] | 0.98 | 0.94 |  |
| Cc1cc2c(s1)Nc1ccccc1N=C2N1CCN(CCCNC(=O)CCOCCOCCOCCOCCNC(=O)CCc2ccc3n2[B-](F)(F)[N+]2=C(c4ccc[nH]4)C=CC2=C3)CC1 [Olanzapine-a-2-NB590] | 1.07 | 0.89 |  |
| CCCn1c(=O)c2[nH]c(-c3ccc(OCC(=O)NCCNC(=O)CCOCCNC(=O)c4ccc(CNC(=O)CCc5ccc6n5[B-](F)(F)[N+]5=C(c7ccc[nH]7)C=CC5=C6)cc4)cc3)nc2n(CCC)c1=O [XAC-3-NB590] | 1.02 | 0.85 |  |
| CN(CCC=C1c2ccccc2CCc2ccccc21)C(=O)CCOCCOCCOCCOCCNC(=O)CCc1ccc2n1[B-](F)(F)[N+]1=C(c3ccc[nH]3)C=CC1=C2 [Amitriptyline-e-2-NB590] |  |  | NanoBRET Fold Response (tracer at 1μM): 1.02 |
| COc1ccc2c(n1)c(CCNC(C)=O)cn2CCNC(=O)CCc1ccc2n1[B-](F)(F)[N+]1=C(c3ccc[nH]3)C=CC1=C2 [Azamelatonin-1-NB590] |  |  | NanoBRET Fold Response (0.1μM tracer): 1.01; NanoBRET Fold Response (1μM tracer): 1.02 |
